Results as given in PubChem BioAssay AID2060490 (Molecular Pharmacology Branch, DTP, NCI, 2025).

Test system: 885512-296-R-J2-PDC complex spheroid viability
Experiment: Anticancer human tumor 885512-296-R-J2-PDC patient-derived breast carcinoma cell line growth inhibition [GQUAD]
Conditions: for IC50: curve of first compound; for viability, T/C: stronger effect = lower value
In short: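 Tumor cells were grown as complex spheroids with HUVEC endothelial cells and mesenchymal stem cells as stroma. G-quadruplex stabilizers were combined with targeted agents over half-log dilutions from near the clinical Cmax, or from 10 microM.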

[1] = second compound 0.0316 µM, first compound 0.0316 µM
[2] = second compound 0.0316 µM, first compound 0.316 µM
[3] = second compound 0.1 µM, first compound 0.0316 µM
[4] = second compound 0.1 µM, first compound 0.316 µM
[5] = second compound 0.316 µM, first compound 0.0316 µM
[6] = second compound 0.316 µM, first compound 0.316 µM
[7] = second compound 1 µM, first compound 0.0316 µM
[8] = second compound 1 µM, first compound 0.316 µM
[9] = second compound 3.16 µM, first compound 0.0316 µM
[10] = second compound 3.16 µM, first compound 0.316 µM
[11] = second compound 10 µM, first compound 0.0316 µM
[12] = second compound 10 µM, first compound 0.316 µM
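Also: spheroids exposed to the compounds for one week.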
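For viability, T/C in this document: percent of tumor spheroid viability relative to DMSO vehicle control wells.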

With `CCc1c2c(nc3ccc(O)cc13)-c1cc3c(c(=O)n1C2)COC(=O)[C@]3(O)CC` + Cc1cnc(CNC(=O)c2c(=O)c3ccc(N4CCCN(C)CC4)nc3n3c2sc2ccccc23)cn1 the IC50 (second compound 0.0316 µM) was < 0.999 nM, the IC50 (second compound 0.1 µM) was < 0.999 nM and the IC50 (second compound 0.316 µM) was < 0.999 nM. For the same compound, the IC50 (second compound 1 µM) was < 0.999 nM, the IC50 (second compound 3.16 µM) was < 0.999 nM and the IC50 (second compound 10 µM) was < 0.999 nM. For the same compound, the viability, T/C (second compound 0.0316 µM, first compound 0.000999 µM) was 17.9%, the viability, T/C (second compound 0.0316 µM, first compound 0.00316 µM) was 8.3% and the viability, T/C (second compound 0.0316 µM, first compound 0.00999 µM) was 5.81%. For the same compound, the viability, T/C [1] was 3.27%, the viability, T/C (second compound 0.0316 µM, first compound 0.0999 µM) was 2% and the viability, T/C [2] was 1.37%. It also gave a viability, T/C (second compound 0.1 µM, first compound 0.000999 µM) of 17%, a viability, T/C (second compound 0.1 µM, first compound 0.00316 µM) of 10.5% and a viability, T/C (second compound 0.1 µM, first compound 0.00999 µM) of 6.32%. The viability, T/C [3] was 4.29%, the viability, T/C (second compound 0.1 µM, first compound 0.0999 µM) was 2.34% and the viability, T/C [4] was 1.47%. The viability, T/C (second compound 0.316 µM, first compound 0.000999 µM) was 16.3%, the viability, T/C (second compound 0.316 µM, first compound 0.00316 µM) was 12.1% and the viability, T/C (second compound 0.316 µM, first compound 0.00999 µM) was 9.75%. It also gave a viability, T/C [5] of 4.25%, a viability, T/C (second compound 0.316 µM, first compound 0.0999 µM) of 1.6% and a viability, T/C [6] of 1.03%. It also gave a viability, T/C (second compound 1 µM, first compound 0.000999 µM) of 16.7%, a viability, T/C (second compound 1 µM, first compound 0.00316 µM) of 14.3% and a viability, T/C (second compound 1 µM, first compound 0.00999 µM) of 7.19%. It also gave a viability, T/C [7] of 1.29%, a viability, T/C (second compound 1 µM, first compound 0.0999 µM) of 0.07% and a viability, T/C [8] of 0.1%. It also gave a viability, T/C (second compound 3.16 µM, first compound 0.000999 µM) of 26.4%, a viability, T/C (second compound 3.16 µM, first compound 0.00316 µM) of 19.8% and a viability, T/C (second compound 3.16 µM, first compound 0.00999 µM) of 2.82%. For the same compound, the viability, T/C [9] was 0.24%, the viability, T/C (second compound 3.16 µM, first compound 0.0999 µM) was 0.06% and the viability, T/C [10] was 0.1%. The viability, T/C (second compound 10 µM, first compound 0.000999 µM) was 0.08%, the viability, T/C (second compound 10 µM, first compound 0.00316 µM) was 0.14% and the viability, T/C (second compound 10 µM, first compound 0.00999 µM) was 0.13%. For the same compound, the viability, T/C [11] was 0.1%, the viability, T/C (second compound 10 µM, first compound 0.0999 µM) was 0.11% and the viability, T/C [12] was 0.13%.
`CC(=O)O[C@H]1C(=O)[C@@]2(C)[C@H]([C@H](OC(=O)c3ccccc3)[C@]3(O)C[C@H](OC(=O)[C@H](O)[C@@H](NC(=O)c4ccccc4)c4ccccc4)C(C)=C1C3(C)C)[C@]1(OC(C)=O)CO[C@@H]1C[C@@H]2O` + CN(C)c1ccc(Nc2c3ccc(NC(=O)CCN4CCCC4)cc3nc3cc(NC(=O)CCN4CCCC4)ccc23)cc1 was tested, and the IC50 (second compound 0.0316 µM) was < 31.6 nM, the IC50 (second compound 0.1 µM) was < 31.6 nM and the IC50 (second compound 0.316 µM) was < 31.6 nM. The IC50 (second compound 1 µM) was < 31.6 nM, the IC50 (second compound 3.16 µM) was < 31.6 nM and the IC50 (second compound 10 µM) was < 31.6 nM. The viability, T/C [1] was 7.7%, the viability, T/C (second compound 0.0316 µM, first compound 0.1 µM) was 3.78% and the viability, T/C [2] was 3.71%. For the same compound, the viability, T/C (second compound 0.0316 µM, first compound 1 µM) was 2.86%, the viability, T/C (second compound 0.0316 µM, first compound 3.16 µM) was 3.18% and the viability, T/C (second compound 0.0316 µM, first compound 10 µM) was 3.65%. The viability, T/C [3] was 6.67%, the viability, T/C (second compound 0.1 µM, first compound 0.1 µM) was 3.1% and the viability, T/C [4] was 3.16%. The viability, T/C (second compound 0.1 µM, first compound 1 µM) was 4.15%, the viability, T/C (second compound 0.1 µM, first compound 3.16 µM) was 3.73% and the viability, T/C (second compound 0.1 µM, first compound 10 µM) was 3.82%. For the same compound, the viability, T/C [5] was 8.31%, the viability, T/C (second compound 0.316 µM, first compound 0.1 µM) was 4.86% and the viability, T/C [6] was 3.98%. For the same compound, the viability, T/C (second compound 0.316 µM, first compound 1 µM) was 3.68%, the viability, T/C (second compound 0.316 µM, first compound 3.16 µM) was 3.77% and the viability, T/C (second compound 0.316 µM, first compound 10 µM) was 3.72%. The viability, T/C [7] was 10.4%, the viability, T/C (second compound 1 µM, first compound 0.1 µM) was 4.09% and the viability, T/C [8] was 3.56%. For the same compound, the viability, T/C (second compound 1 µM, first compound 1 µM) was 3.3%, the viability, T/C (second compound 1 µM, first compound 3.16 µM) was 3.31% and the viability, T/C (second compound 1 µM, first compound 10 µM) was 3.95%. It also gave a viability, T/C [9] of 5.71%, a viability, T/C (second compound 3.16 µM, first compound 0.1 µM) of 3.67% and a viability, T/C [10] of 3.71%. It also gave a viability, T/C (second compound 3.16 µM, first compound 1 µM) of 3.88%, a viability, T/C (second compound 3.16 µM, first compound 3.16 µM) of 5.32% and a viability, T/C (second compound 3.16 µM, first compound 10 µM) of 5.08%. The viability, T/C [11] was 6.02%, the viability, T/C (second compound 10 µM, first compound 0.1 µM) was 4.19% and the viability, T/C [12] was 2.67%. It also gave a viability, T/C (second compound 10 µM, first compound 1 µM) of 4.93%, a viability, T/C (second compound 10 µM, first compound 3.16 µM) of 3.01% and a viability, T/C (second compound 10 µM, first compound 10 µM) of 3.27%.
